# Earlier results, collected in patent publication US20250179129A1, “ZINC FINGER PEPTIDES, PEPTIDE ARRAYS, AND METHODS OF USE THEREOF” (The Regents of the University of California, priority 2022, published 2025).
# Test system: single-strand RNA containing a GGU motif
sequence,measurement,value
SDGDWICPDKKCGNVNFARRTSCNRCGREKTT (listed as Homo sapiens) [zinc finger in ZRANB2],affinity for single-strand RNA containing a GGU motif,micromolar
